Values of other authors as cited in patent US5972966A, “Inhibitors of farnesyl-protein transferase” (Merck & Co., Inc., priority 1997, dated 1999).

Tests used:
[1] = tested on: farnesyl-protein transferase; settings: by inhibiting HMG-CoA reductase
Ras processing in cells = settings: by inhibiting the rate-limiting step in the isoprenoid biosynthetic pathway

SMILES	Indirect inhibition of farnesyl-protein transferase in vivo [1]	blocking of Ras processing in cells (Ras processing in cells)
CC[C@H](C)C(=O)O[C@H]1CCC=C2C=C[C@H](C)[C@H](CC[C@@H]3C[C@@H](O)CC(=O)O3)[C@H]21 [compactin]	Indirect inhibition	–
CC[C@H](C)C(=O)O[C@H]1C[C@@H](C)C=C2C=C[C@H](C)[C@H](CC[C@@H]3C[C@@H](O)CC(=O)O3)[C@H]21 [lovastatin]	Indirect inhibition	blocks Ras processing in cells
